What all share (assay): TGFα-shedding assay-based GPCR screening with chimeric Gα subunit proteins
Assay type in all cases: cell-based

Test [1] addresses T1, 348 GPCRs (Homo sapiens, UniProt P21462).
T1 sequence (P21462 1-350): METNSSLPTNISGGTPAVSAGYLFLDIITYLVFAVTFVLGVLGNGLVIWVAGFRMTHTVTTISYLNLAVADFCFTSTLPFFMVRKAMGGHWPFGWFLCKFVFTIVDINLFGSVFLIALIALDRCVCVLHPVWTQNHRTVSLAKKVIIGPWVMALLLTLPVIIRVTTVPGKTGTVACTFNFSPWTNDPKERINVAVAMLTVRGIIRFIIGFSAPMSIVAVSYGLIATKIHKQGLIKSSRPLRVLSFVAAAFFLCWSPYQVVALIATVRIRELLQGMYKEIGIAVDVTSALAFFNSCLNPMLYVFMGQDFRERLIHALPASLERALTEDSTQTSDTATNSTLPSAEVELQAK
Particulars: 10µM, Favipiravir 100μM.

Test [2] concerns the target T2, 348 GPCRs (Homo sapiens, UniProt P25106).
T2 construct: expressed in transfected cells; host or cells: HEK293A

In test [3] the target is T3, 348 GPCRs (Homo sapiens, UniProt P25116).
T3 construct: expressed in transfected cells; host or cells: HEK293A
T3 sequence (P25116 22-425): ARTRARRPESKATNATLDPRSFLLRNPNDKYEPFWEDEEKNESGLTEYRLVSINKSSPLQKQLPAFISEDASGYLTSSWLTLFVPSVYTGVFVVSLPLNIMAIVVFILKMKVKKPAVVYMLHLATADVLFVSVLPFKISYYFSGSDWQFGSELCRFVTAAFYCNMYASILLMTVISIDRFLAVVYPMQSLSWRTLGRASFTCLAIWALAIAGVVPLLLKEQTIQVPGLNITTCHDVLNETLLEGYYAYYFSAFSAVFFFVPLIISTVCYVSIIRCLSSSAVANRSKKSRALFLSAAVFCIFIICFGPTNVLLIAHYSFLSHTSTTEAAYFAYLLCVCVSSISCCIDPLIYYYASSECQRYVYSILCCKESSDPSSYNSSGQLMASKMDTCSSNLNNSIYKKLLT
Particulars: 10µM, Favipiravir 100μM.

The target in test [4] is 348 GPCRs (Homo sapiens, UniProt P35346). Particulars: 10µM, Favipiravir 100μM.
For test [5], the target named is T4, 348 GPCRs (Homo sapiens, UniProt P48960).
T4 construct: expressed in transfected cells; host or cells: HEK293A
T4 sequence (P48960 21-835): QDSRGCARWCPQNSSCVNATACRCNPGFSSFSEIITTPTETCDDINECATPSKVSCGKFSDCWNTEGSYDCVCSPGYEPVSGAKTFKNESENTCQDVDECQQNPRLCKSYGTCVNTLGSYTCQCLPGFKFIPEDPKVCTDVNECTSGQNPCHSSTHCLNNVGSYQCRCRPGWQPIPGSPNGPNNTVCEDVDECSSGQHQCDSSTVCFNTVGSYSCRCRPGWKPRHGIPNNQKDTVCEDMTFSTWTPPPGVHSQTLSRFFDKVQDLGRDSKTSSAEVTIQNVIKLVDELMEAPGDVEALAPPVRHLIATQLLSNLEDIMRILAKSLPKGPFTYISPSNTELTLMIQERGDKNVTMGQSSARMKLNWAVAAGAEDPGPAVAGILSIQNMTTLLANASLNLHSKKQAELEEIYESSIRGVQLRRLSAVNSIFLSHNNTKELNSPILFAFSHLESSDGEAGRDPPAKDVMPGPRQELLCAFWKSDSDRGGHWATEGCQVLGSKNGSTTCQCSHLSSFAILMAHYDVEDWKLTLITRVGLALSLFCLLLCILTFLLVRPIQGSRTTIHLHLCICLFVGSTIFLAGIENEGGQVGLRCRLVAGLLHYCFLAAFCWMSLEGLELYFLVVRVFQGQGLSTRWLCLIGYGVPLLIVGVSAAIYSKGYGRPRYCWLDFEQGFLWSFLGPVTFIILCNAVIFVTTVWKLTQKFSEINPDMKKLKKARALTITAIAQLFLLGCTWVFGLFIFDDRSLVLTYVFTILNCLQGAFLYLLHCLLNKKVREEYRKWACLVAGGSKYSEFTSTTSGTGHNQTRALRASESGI

The target of test [6] is T5, 348 GPCRs (Homo sapiens, UniProt Q8NFJ5).
T5 construct: expressed in transfected cells; host or cells: HEK293A
Particulars: 10µM, Favipiravir 100μM.

The target of test [7] is T6, 348 GPCRs (Homo sapiens, UniProt Q8NFN8).
T6 construct: expressed in transfected cells; host or cells: HEK293A
T6 sequence (Q8NFN8 1-814): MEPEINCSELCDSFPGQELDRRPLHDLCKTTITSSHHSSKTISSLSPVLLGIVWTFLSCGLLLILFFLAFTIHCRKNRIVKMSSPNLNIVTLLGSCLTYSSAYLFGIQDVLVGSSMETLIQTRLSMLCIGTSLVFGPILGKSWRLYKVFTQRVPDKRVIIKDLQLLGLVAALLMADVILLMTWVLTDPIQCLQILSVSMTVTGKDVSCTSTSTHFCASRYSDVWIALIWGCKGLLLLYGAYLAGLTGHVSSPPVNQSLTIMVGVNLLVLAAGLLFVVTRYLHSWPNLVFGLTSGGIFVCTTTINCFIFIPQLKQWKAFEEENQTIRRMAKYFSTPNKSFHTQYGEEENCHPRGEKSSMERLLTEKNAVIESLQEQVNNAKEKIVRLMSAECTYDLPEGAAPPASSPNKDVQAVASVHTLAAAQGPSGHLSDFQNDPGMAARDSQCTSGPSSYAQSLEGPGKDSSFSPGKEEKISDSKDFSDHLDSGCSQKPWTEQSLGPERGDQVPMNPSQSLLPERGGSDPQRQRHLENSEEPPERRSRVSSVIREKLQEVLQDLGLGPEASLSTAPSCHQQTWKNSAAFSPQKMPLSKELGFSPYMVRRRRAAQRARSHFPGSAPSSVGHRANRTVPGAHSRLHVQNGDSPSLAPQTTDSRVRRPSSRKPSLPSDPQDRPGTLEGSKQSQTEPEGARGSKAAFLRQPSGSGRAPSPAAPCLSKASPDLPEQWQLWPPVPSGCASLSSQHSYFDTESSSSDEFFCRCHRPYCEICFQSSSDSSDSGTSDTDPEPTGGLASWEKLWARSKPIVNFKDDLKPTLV
Particulars: 10µM, Favipiravir 100μM.

[8] abbreviates: read-out: % GPCR activation compared to TPA, FPR1 (formyl peptide receptor 1).
The mark [9] stands for this setting: read-out: % GPCR activation compared to TPA, GPCR CXCR7 (chemokine (C-X-C motif) receptor 7).
Where [10] appears, read: read-out: % GPCR activation compared to TPA, F2R (coagulation factor II (thrombin) receptor).
Where [11] appears, read: read-out: % GPCR activation compared to TPA, SSTR5 (somatostatin receptor 5).
Where [12] appears, read: read-out: % GPCR activation compared to TPA, GPCR CD97 (adhesion G protein-coupled receptor E5).
Setting [13] is: read-out: % GPCR activation compared to TPA, GPRC5A (G protein-coupled receptor class C group 5 member A).
[14] abbreviates: read-out: % GPCR activation compared to TPA, GPR156 (G protein-coupled receptor 156).
The mark [15] stands for this setting: FPR1 (formyl peptide receptor 1), read-out: % GPCR activation compared to TPA.
Where [16] appears, read: F2R (coagulation factor II (thrombin) receptor), read-out: % GPCR activation compared to TPA.
[17] abbreviates: SSTR5 (somatostatin receptor 5), read-out: % GPCR activation compared to TPA.
Where [18] appears, read: GPRC5A (G protein-coupled receptor class C group 5 member A), read-out: % GPCR activation compared to TPA.
Where [19] appears, read: GPR156 (G protein-coupled receptor 156), read-out: % GPCR activation compared to TPA.
Setting [20] is: GPCR CXCR7 (chemokine (C-X-C motif) receptor 7), read-out: % GPCR activation compared to TPA.
Setting [21] is: GPCR CD97 (adhesion G protein-coupled receptor E5), read-out: % GPCR activation compared to TPA.

Like-named read-outs stand apart in the source and are kept apart here.

T5 sequence (Q8NFJ5 whole entry): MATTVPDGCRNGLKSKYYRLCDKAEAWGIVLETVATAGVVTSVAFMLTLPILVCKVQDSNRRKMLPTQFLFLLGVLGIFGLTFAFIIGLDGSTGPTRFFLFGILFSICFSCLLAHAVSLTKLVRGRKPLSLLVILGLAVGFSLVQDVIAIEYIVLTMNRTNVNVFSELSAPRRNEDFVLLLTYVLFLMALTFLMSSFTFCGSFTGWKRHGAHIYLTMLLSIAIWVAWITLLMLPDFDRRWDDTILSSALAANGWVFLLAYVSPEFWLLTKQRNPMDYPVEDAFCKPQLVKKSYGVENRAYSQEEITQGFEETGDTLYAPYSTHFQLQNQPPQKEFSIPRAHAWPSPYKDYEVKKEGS
T2 sequence (P25106 whole entry): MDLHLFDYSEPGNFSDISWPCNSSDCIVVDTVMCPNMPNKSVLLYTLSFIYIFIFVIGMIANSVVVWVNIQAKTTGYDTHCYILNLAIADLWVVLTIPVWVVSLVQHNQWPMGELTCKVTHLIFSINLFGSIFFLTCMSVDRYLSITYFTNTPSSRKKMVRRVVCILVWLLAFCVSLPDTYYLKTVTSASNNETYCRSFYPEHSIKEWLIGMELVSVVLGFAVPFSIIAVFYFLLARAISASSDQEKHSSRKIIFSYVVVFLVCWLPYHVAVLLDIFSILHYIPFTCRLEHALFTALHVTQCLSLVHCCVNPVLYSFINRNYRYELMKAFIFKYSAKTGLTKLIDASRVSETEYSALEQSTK
Chain of 348 GPCRs (Homo sapiens, UniProt P35346) (P35346 whole entry): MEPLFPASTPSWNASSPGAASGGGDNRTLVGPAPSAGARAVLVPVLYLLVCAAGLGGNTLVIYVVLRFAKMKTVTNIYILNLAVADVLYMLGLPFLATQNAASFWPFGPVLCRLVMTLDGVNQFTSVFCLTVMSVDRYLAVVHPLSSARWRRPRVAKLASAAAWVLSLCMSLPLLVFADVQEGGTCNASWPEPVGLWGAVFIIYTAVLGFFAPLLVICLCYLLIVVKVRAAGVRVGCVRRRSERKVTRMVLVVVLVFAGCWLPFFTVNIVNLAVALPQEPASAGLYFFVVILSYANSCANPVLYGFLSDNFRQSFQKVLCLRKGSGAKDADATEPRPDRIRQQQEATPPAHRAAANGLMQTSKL

`CC(C)OC(=O)[C@H](C)N[P@](=O)(OC[C@H]1O[C@@H](n2ccc(=O)[nH]c2=O)[C@](C)(F)[C@@H]1O)Oc1ccccc1` [sofosbuvir]: the activation at 100 µM was -0.986% at 348 GPCRs [1] (setting [8]) and -9.13% at 348 GPCRs [6] (setting [13]). Moreover, the activation at 10 µM on 348 GPCRs [2] (setting [9]) is -0.832%; at 348 GPCRs [3] (setting [10]), -1.12%; at 348 GPCRs [4] (setting [11]), -0.552%; on 348 GPCRs [5] (setting [12]) it was -1.88%; on 348 GPCRs [7] (setting [14]), -4.51%.
With `NC(=O)c1nc(F)cnc1O` [favipiravir, 6-fluoro-3-hydroxy-2-pyrazinecarboxamide], the activation at 100 µM is -5.47% on 348 GPCRs [1] (setting [15]); -1.9% on 348 GPCRs [2] (GPCR CXCR7 (chemokine (C-X-C motif) receptor 7), 100μM, read-out: % GPCR activation compared to TPA); -3.34% on 348 GPCRs [5] (GPCR CD97 (adhesion G protein-coupled receptor E5), 100μM, read-out: % GPCR activation compared to TPA); 8.99% on 348 GPCRs [6] (setting [18]). The activation at 10 µM was -2.55% on 348 GPCRs [3] (setting [16]), 2.28% on 348 GPCRs [4] (setting [17]) and 2.77% at 348 GPCRs [7] (setting [19]).
On to `CCC(CC)COC(=O)[C@H](C)N[P@](=O)(OC[C@H]1O[C@@](C#N)(c2ccc3c(N)ncnn23)[C@H](O)[C@@H]1O)Oc1ccccc1` [remdesivir], for which the activation at 100 µM was -4.31% on 348 GPCRs [1] (setting [8]) and 9.99% on 348 GPCRs [6] (setting [13]). Further, the activation at 10 µM was 0.898% on 348 GPCRs [2] (setting [9]); -1.45% at 348 GPCRs [3] (setting [10]); -0.348% on 348 GPCRs [4] (setting [11]); 1.2% on 348 GPCRs [5] (setting [12]); 4.05% at 348 GPCRs [7] (setting [14]).
With `N#C[C@@]1(c2ccc3c(N)ncnn23)O[C@H](CO)[C@@H](O)[C@H]1O` [GS441524], the activation at 100 µM on 348 GPCRs [1] (setting [15]) was -4.1%; at 348 GPCRs [6] (setting [18]), 6.76%. Also, the activation at 10 µM on 348 GPCRs [2] (setting [20]) was 1.43%; at 348 GPCRs [3] (setting [16]), -1.57%; at 348 GPCRs [4] (setting [17]), -0.162%; at 348 GPCRs [5] (setting [21]) it was -3.9%; on 348 GPCRs [7] (setting [19]), 1.38%.
`CC(C)C(=O)OC[C@H]1O[C@@H](n2ccc(NO)nc2=O)[C@H](O)[C@@H]1O` [molnupiravir]: the results for the activation at 100 µM on 348 GPCRs [1] (setting [15]) and on 348 GPCRs [6] (setting [18]) were -0.204% and -5.54%, respectively. The activation at 10 µM on 348 GPCRs [2] (setting [20]) was -1.56%; on 348 GPCRs [3] (setting [16]), -0.992%; at 348 GPCRs [4] (setting [17]), -2.28%; at 348 GPCRs [5] (setting [21]) it was -0.34%; at 348 GPCRs [7] (setting [19]), -4.86%.

The values above are taken from paper PMC10175918 (Communications Biology, 2023).
